Each compound was assayed on corn (Zea mays L.): ZEAMX (assay: Test Example 1 pre-emergence herbicidal activity, ZEAMX). Details: Rate 63 g a.i./ha, visually observed 20th to 23rd day after application.
Assay type: in vivo
Summary of the method: (§1)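 Compound was delivered by small sprayer to sown upland soil one day after sowing, before emergence, at 500 L/ha spray volume. Plant growth was assessed visually around 3 weeks later (days 20–23), 100% denoting complete kill.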
In the case of `COc1ccc(OC(=O)Nc2c(OC)c(Cl)cc(F)c2-c2nn(C)c(OC(F)F)c2Cl)cc1` [Compound 1-57], the “Pre-emergence Herbicidal Activity ZEAMX (growth controlling degree)” value is reported as 0%.

These compounds were tested on soybean (Glycine max Merr.), GLXMA (assay: Test Example 2 post-emergence (foliage treatment) herbicidal activity, GLXMA). Details: 63 g a.i./ha.
Assay type: in vivo
Summary of the method: (§2)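 Each species was evaluated for growth suppression by eye, 0% matching untreated and 100% meaning death, some 20 to 23 days after a single post-emergence foliar treatment applied in 500 L/ha of water carrying 0.1% (v/v) agricultural spreader.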
With `COc1ccc(OC(=O)Nc2c(OC)c(Cl)cc(F)c2-c2nn(C)c(OC(F)F)c2Cl)cc1` [Compound 1-57] the “growth controlling degree, GLXMA” value was 90%.

These compounds were tested on redroot pigweed (Amaranthus retroflexus L.): AMARE (assay: Test Example 1 pre-emergence herbicidal activity, AMARE). Details: Rate 63 g a.i./ha, visually observed 20th to 23rd day after application.
Assay type: in vivo
Summary of the method: as §1
For `COc1ccc(OC(=O)Nc2c(OC)c(Cl)cc(F)c2-c2nn(C)c(OC(F)F)c2Cl)cc1` [Compound 1-57], the “Pre-emergence Herbicidal Activity AMARE (growth controlling degree)” value was 100%.

The compounds below were run on japanese ribbon wapato (Sagittaria pygmaea: SA GPY) (assay: Test Example 3 water application herbicidal activity (paddy), SAGPY). Details: 63 g a.i./ha, water application under submerged condition, tubers planted, visually observed 14th day after application; 0 = untreated control, 100 = complete kill.
Assay type: in vivo
Summary of the method: (§3)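 Compound, as diluted wettable powder or emulsifiable concentrate, was pipetted into flood water at a set active-ingredient dose. Weeds were treated at 0.5-leaf stage after sowing or tuber planting; 2-leaf rice 4 days post-transplant. Control scored visually, 0 untreated to 100 complete kill, weeds day 14, rice day 21.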
`COc1ccc(OC(=O)Nc2c(OC)c(Cl)cc(F)c2-c2nn(C)c(OC(F)F)c2Cl)cc1` [Compound 1-57] was tested, and the “growth controlling degrees (%) SAGPY” value was 100%.

These compounds were tested on velvetleaf (Abutilon theophrasti): ABUTH (assay: Test Example 1 pre-emergence herbicidal activity, ABUTH). Details: Rate 63 g a.i./ha, visually observed 20th to 23rd day after application.
Assay type: in vivo
Summary of the method: as §1
In the case of `COc1ccc(OC(=O)Nc2c(OC)c(Cl)cc(F)c2-c2nn(C)c(OC(F)F)c2Cl)cc1` [Compound 1-57], the “Pre-emergence Herbicidal Activity ABUTH (growth controlling degree)” value is reported as 60%.

The compounds below were run on barnyardgrass (Echinochloa crus-galli L.): ECHCG (assay: Test Example 1 pre-emergence herbicidal activity, ECHCG). Details: Rate 63 g a.i./ha, visually observed 20th to 23rd day after application.
Assay type: in vivo
Summary of the method: as §1
In the case of `COc1ccc(OC(=O)Nc2c(OC)c(Cl)cc(F)c2-c2nn(C)c(OC(F)F)c2Cl)cc1` [Compound 1-57], the “Pre-emergence Herbicidal Activity ECHCG (growth controlling degree)” value is reported as 70%.

These compounds were tested on green foxtail (Setaria viridis L.): SETVI (assay: Test Example 1 pre-emergence herbicidal activity, SETVI). Details: Rate 63 g a.i./ha, visually observed 20th to 23rd day after application.
Assay type: in vivo
Summary of the method: as §1
In the case of `COc1ccc(OC(=O)Nc2c(OC)c(Cl)cc(F)c2-c2nn(C)c(OC(F)F)c2Cl)cc1` [Compound 1-57], the “Pre-emergence Herbicidal Activity SETVI (growth controlling degree)” value is reported as 95%.

The compounds below were run on corn (Zea mays L.), ZEAMX (assay: Test Example 2 post-emergence (foliage treatment) herbicidal activity, ZEAMX). Details: 63 g a.i./ha.
Assay type: in vivo
Summary of the method: as §2
`COc1ccc(OC(=O)Nc2c(OC)c(Cl)cc(F)c2-c2nn(C)c(OC(F)F)c2Cl)cc1` [Compound 1-57] was tested, and the “growth controlling degree, ZEAMX” value was 90%.

Each compound was assayed on prickly sida (Sida spinosa L.): SEDSP (assay: Test Example 1 pre-emergence herbicidal activity, SIDSP). Details: Rate 63 g a.i./ha, visually observed 20th to 23rd day after application.
Assay type: in vivo
Summary of the method: as §1
In the case of `COc1ccc(OC(=O)Nc2c(OC)c(Cl)cc(F)c2-c2nn(C)c(OC(F)F)c2Cl)cc1` [Compound 1-57], the “Pre-emergence Herbicidal Activity SIDSP (growth controlling degree)” value is reported as 70%.

Each compound was assayed on green foxtail (Setaria viridis L.), SETVI (assay: Test Example 2 post-emergence (foliage treatment) herbicidal activity, SETVI). Details: 63 g a.i./ha.
Assay type: in vivo
Summary of the method: as §2
With `COc1ccc(OC(=O)Nc2c(OC)c(Cl)cc(F)c2-c2nn(C)c(OC(F)F)c2Cl)cc1` [Compound 1-57] the “growth controlling degree, SETVI” value was 100%.

The compounds below were run on prickly sida (Sida spinosa L.), SIDSP (assay: Test Example 2 post-emergence (foliage treatment) herbicidal activity, SIDSP). Details: 63 g a.i./ha.
Assay type: in vivo
Summary of the method: as §2
With `COc1ccc(OC(=O)Nc2c(OC)c(Cl)cc(F)c2-c2nn(C)c(OC(F)F)c2Cl)cc1` [Compound 1-57] the “growth controlling degree, SIDSP” value was 100%.

What follows are compounds tested on wheat (Triticum aestivum L.): TRZAX (assay: Test Example 1 pre-emergence herbicidal activity, TRZAX). Details: Rate 63 g a.i./ha, visually observed 20th to 23rd day after application.
Assay type: in vivo
Summary of the method: as §1
In the case of `COc1ccc(OC(=O)Nc2c(OC)c(Cl)cc(F)c2-c2nn(C)c(OC(F)F)c2Cl)cc1` [Compound 1-57], the “Pre-emergence Herbicidal Activity TRZAX (growth controlling degree)” value is reported as 30%.

Each compound was assayed on barnyardgrass (Echinochloa crus-galli L.), ECHCG (assay: Test Example 2 post-emergence (foliage treatment) herbicidal activity, ECHCG). Details: 63 g a.i./ha.
Assay type: in vivo
Summary of the method: (§4)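 Greenhouse pot test with upland field soil. Treatment: foliage spray, active ingredient at a predetermined amount, 500 L/ha, spreader 0.1% (v/v); leaf stage 0.1-1.5 (AMARE), 1.1-2.1 (ECHCG), 1.0-2.0 (DIGSA), 1.0-2 (ORYSA). Endpoint: visual % control, d20-23.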
`COc1ccc(OC(=O)Nc2c(OC)c(Cl)cc(F)c2-c2nn(C)c(OC(F)F)c2Cl)cc1` [Compound 1-57] was tested, and the “growth controlling degree, ECHCO” value was 100%.

Each compound was assayed on rice (Oryza sativa L.), ORYSA (assay: Test Example 2 post-emergence (foliage treatment) herbicidal activity, ORYSA). Details: 63 g a.i./ha.
Assay type: in vivo
Summary of the method: as §4
In the case of `COc1ccc(OC(=O)Nc2c(OC)c(Cl)cc(F)c2-c2nn(C)c(OC(F)F)c2Cl)cc1` [Compound 1-57], the “growth controlling degree, ORYSA” value is reported as 95%.

What follows are compounds tested on velvetleaf (Abutilon theophrasti), ABUTH (assay: Test Example 2 post-emergence (foliage treatment) herbicidal activity, ABUTH). Details: 63 g a.i./ha.
Assay type: in vivo
Summary of the method: as §2
`COc1ccc(OC(=O)Nc2c(OC)c(Cl)cc(F)c2-c2nn(C)c(OC(F)F)c2Cl)cc1` [Compound 1-57] was tested, and the “growth controlling degree, ABUTH” value was 100%.

Each compound was assayed on barnyardgrass (Echinochiloa oryzicola: ECHOR) (assay: Test Example 3 water application herbicidal activity (paddy), ECHOR). Details: 63 g a.i./ha, water application under submerged condition at 0.5 leaf stage, visually observed 14th day after application; 0 = untreated control, 100 = complete kill.
Assay type: in vivo
Summary of the method: as §3
With `COc1ccc(OC(=O)Nc2c(OC)c(Cl)cc(F)c2-c2nn(C)c(OC(F)F)c2Cl)cc1` [Compound 1-57] the “growth controlling degrees (%) ECHOR” value was 100%.

Each compound was assayed on crabgrass (Digitaria sanguinalis L.): DIGSA (assay: Test Example 1 pre-emergence herbicidal activity, DIGSA). Details: Rate 63 g a.i./ha, visually observed 20th to 23rd day after application.
Assay type: in vivo
Summary of the method: as §1
In the case of `COc1ccc(OC(=O)Nc2c(OC)c(Cl)cc(F)c2-c2nn(C)c(OC(F)F)c2Cl)cc1` [Compound 1-57], the “Pre-emergence Herbicidal Activity DIGSP (growth controlling degree)” value is reported as 80%.

These compounds were tested on japanese bulrush (Scirpus juncoides: SCPJO) (assay: Test Example 3 water application herbicidal activity (paddy), SCPJO). Details: 63 g a.i./ha, water application under submerged condition at 0.5 leaf stage, visually observed 14th day after application; 0 = untreated control, 100 = complete kill.
Assay type: in vivo
Summary of the method: as §3
In the case of `COc1ccc(OC(=O)Nc2c(OC)c(Cl)cc(F)c2-c2nn(C)c(OC(F)F)c2Cl)cc1` [Compound 1-57], the “growth controlling degrees (%) SCPJO” value is reported as 100%.

What follows are compounds tested on soybean (Glycine max Merr.): GLXMA (assay: Test Example 1 pre-emergence herbicidal activity, GLXMA). Details: Rate 63 g a.i./ha, visually observed 20th to 23rd day after application.
Assay type: in vivo
Summary of the method: as §1
For `COc1ccc(OC(=O)Nc2c(OC)c(Cl)cc(F)c2-c2nn(C)c(OC(F)F)c2Cl)cc1` [Compound 1-57], the “Pre-emergence Herbicidal Activity GLXMA (growth controlling degree)” value was 0%.

These compounds were tested on redroot pigweed (Amaranthus retroflexus L.), AMARE (assay: Test Example 2 post-emergence (foliage treatment) herbicidal activity, AMARE). Details: 63 g a.i./ha.
Assay type: in vivo
Summary of the method: as §4
With `COc1ccc(OC(=O)Nc2c(OC)c(Cl)cc(F)c2-c2nn(C)c(OC(F)F)c2Cl)cc1` [Compound 1-57] the “growth controlling degree, AMARE” value was 100%.

The compounds below were run on wheat (Triticum aestivum L.), TRZAX (assay: Test Example 2 post-emergence (foliage treatment) herbicidal activity, TRZAX). Details: 63 g a.i./ha.
Assay type: in vivo
Summary of the method: as §2
With `COc1ccc(OC(=O)Nc2c(OC)c(Cl)cc(F)c2-c2nn(C)c(OC(F)F)c2Cl)cc1` [Compound 1-57] the “growth controlling degree, TRZAX” value was 40%.

What follows are compounds tested on rice (Oryza sativa L.): ORYSA (assay: Test Example 1 pre-emergence herbicidal activity, ORYSA). Details: Rate 63 g a.i./ha, visually observed 20th to 23rd day after application.
Assay type: in vivo
Summary of the method: as §1
In the case of `COc1ccc(OC(=O)Nc2c(OC)c(Cl)cc(F)c2-c2nn(C)c(OC(F)F)c2Cl)cc1` [Compound 1-57], the “Pre-emergence Herbicidal Activity ORYSA (growth controlling degree)” value is reported as 20%.

These compounds were tested on rice (Oryza sativa L.: ORYSA) (assay: Test Example 3 water application herbicidal activity (paddy), transplanted rice ORYSA). Details: 63 g a.i./ha, water application 4th day after transplantation of 2 leaf stage rice, visually observed 21st day after application; 0 = untreated control, 100 = complete kill.
Assay type: in vivo
Summary of the method: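 Submerged application in flooded paddy soil (3–4 cm water); weeds treated at 0.5-leaf stage, transplanted rice 4 d after transplanting. Scored visually as % growth control: weeds at 14 d, rice at 21 d.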
With `COc1ccc(OC(=O)Nc2c(OC)c(Cl)cc(F)c2-c2nn(C)c(OC(F)F)c2Cl)cc1` [Compound 1-57] the “growth controlling degrees (%) ORYSA” value was 50%.

Each compound was assayed on crabgrass (Digitaria sanguinalis L.), DIGSA (assay: Test Example 2 post-emergence (foliage treatment) herbicidal activity, DIGSA). Details: 63 g a.i./ha.
Assay type: in vivo
Summary of the method: as §4
For `COc1ccc(OC(=O)Nc2c(OC)c(Cl)cc(F)c2-c2nn(C)c(OC(F)F)c2Cl)cc1` [Compound 1-57], the “growth controlling degree, DIGSP” value was 100%.
